From PubChem BioAssay AID792 (PCMD, 2007)
Records with an inconclusive call do not appear. Calls of active or inactive are those of the source. How the calls were made is not given here.

Target: S. cerevisiae eIF2B mutant, luciferase reporter luminescence
Assay: eIF2B reporter inhibitors in yeast strains, dose response, S. cerevisiae, mutant, wild-type, luminescence, growth (AID 792)
[1] = S. cerevisiae wild-type, luminescence
[2] = measured here: mutant yeast growth

Compound: Cc1cc(=O)[nH]c(N=N/C(=N/Nc2ccc(O)cc2)c2ccccc2)n1
- IC50: inactive
- IC50 [1]: 45.2 µM
- IC50 [2]: > 100 µM

Compound: O=C(OCCn1cncn1)c1cc2ccccc2oc1=O
- IC50: > 100 µM (inactive)
- IC50 [2]: > 100 µM

Compound: Oc1ccccc1-c1nnc(-c2ccc(C(F)(F)F)cc2)o1
- IC50: > 100 µM (inactive)
- IC50 [2]: > 100 µM

Compound: C=CCN(C(=O)CCC(=O)O)C1CC(=O)N(c2ccc(OC)cc2)C1=O (stereo unspecified)
- IC50: > 100 µM (inactive)
- IC50 [2]: > 100 µM

Compound: COc1ccc(C2=CSC3=NCCN23)cc1F
- IC50: > 100 µM (inactive)
- IC50 [2]: > 100 µM

Compound: COc1cccc(Oc2cn[nH]c2-c2ccc(OC)cc2O)c1
- IC50: inactive
- IC50 [1]: 44.1 µM
- IC50 [2]: 40.8 µM

Compound: CSc1ccccc1NC(=O)c1noc2c1CCC2
- IC50: > 100 µM (inactive)
- IC50 [2]: > 100 µM

Compound: CC(=O)Nc1cc(C(F)(F)F)ccc1OCCOc1ccccc1
- IC50: > 100 µM (inactive)
- IC50 [2]: > 100 µM

Compound: O=C(Nc1ccccn1)c1cc2ccccc2o1
- IC50: inactive
- IC50 [1]: 4.46 µM
- IC50 [2]: 56.3 µM

Compound: CCCC(CCC(=O)NC1CCCCC1)C(=O)O (stereo unspecified)
- IC50: > 100 µM (inactive)
- IC50 [2]: > 100 µM

Compound: CCOC(=O)CC1=NC(=O)CS1
- IC50: > 100 µM (inactive)
- IC50 [2]: > 100 µM

Compound: CCOc1ccc2cc(/C=C/C(=O)c3ccco3)c(Cl)nc2c1
- IC50: > 100 µM (inactive)
- IC50 [2]: > 100 µM

Compound: O=C(c1ccc2c(c1)OCO2)N(c1ccc(F)cc1)C1C=CS(=O)(=O)C1 (stereo unspecified)
- IC50: > 100 µM (inactive)
- IC50 [2]: > 100 µM

Compound: Fc1ccc(Nc2nc(Oc3ccc4c(c3)OCO4)nc(N3CCOCC3)n2)c(F)c1
- IC50: > 100 µM (inactive)
- IC50 [2]: > 100 µM

Compound: CC(NC(=O)CSc1nc2ccccc2c(=O)n1CCCO)c1ccccc1 (stereo unspecified)
- IC50: > 100 µM (inactive)
- IC50 [2]: > 100 µM

Compound: C=CCN(Cc1cccc(OC)c1OC)S(=O)(=O)N(C)C
- IC50: > 100 µM (inactive)
- IC50 [2]: > 100 µM

Compound: Cc1ccc(OCCCC(=O)Nc2ccc(S(=O)(=O)Nc3cc(C)on3)cc2)cc1
- IC50: > 100 µM (inactive)
- IC50 [2]: > 100 µM

Compound: COc1ccccc1CC(=O)N1CCN(c2cccc(C(F)(F)F)c2)CC1
- IC50: > 100 µM (inactive)
- IC50 [2]: > 100 µM

Compound: Cc1ccc(-c2nnc(COc3cccc(-n4cnnn4)c3)o2)cc1
- IC50: > 100 µM (inactive)
- IC50 [2]: > 100 µM

Compound: Cc1ccc2c(c1)C1CN(C)CCC1N2C(=O)Nc1cccc(Cl)c1 (stereo unspecified)
- IC50: > 100 µM (inactive)
- IC50 [2]: > 100 µM

Compound: COc1ccc(NC(=O)C(=O)NCCN2CCN(C(=O)c3cccs3)CC2)cc1
- IC50: > 100 µM (inactive)
- IC50 [2]: > 100 µM

Compound: Cc1cc(C)c(C#N)c(SCC(=O)Nc2nnc(-c3ccccc3)s2)n1
- IC50: > 100 µM (inactive)
- IC50 [2]: > 100 µM

Compound: Cc1cc(=O)oc2ccc(OCC(=O)N3CCc4ccccc43)cc12
- IC50: > 100 µM (inactive)
- IC50 [2]: > 100 µM

Compound: C=CCn1c(SCc2c(Cl)cccc2Cl)nnc1-c1cccnc1
- IC50: > 100 µM (inactive)
- IC50 [2]: > 100 µM

Compound: Cc1ccc(Cn2nnnc2CN2CCC(O)(c3ccc(F)cc3)CC2)cc1
- IC50: > 100 µM (inactive)
- IC50 [2]: > 100 µM

Compound: CCN(CC(N)=O)S(=O)(=O)c1ccc(Br)cc1
- IC50: > 100 µM (inactive)
- IC50 [2]: > 100 µM

Compound: CCC(=O)Nc1c2c(nn1-c1ccc(C)cc1C)CSC2
- IC50: > 100 µM (inactive)
- IC50 [2]: > 100 µM

Compound: COCC(=O)NC(c1ccccc1)c1ccccc1
- IC50: > 100 µM (inactive)
- IC50 [2]: > 100 µM

Compound: CCSc1nnc(-c2ccc(S(=O)(=O)NCc3cccs3)cc2)o1
- IC50: > 100 µM (inactive)
- IC50 [2]: > 100 µM

Compound: CCOC(=O)CSc1nncc2ccc(OC)c(OC)c12
- IC50: > 100 µM (inactive)
- IC50 [2]: > 100 µM

Compound: COc1cccc(C2NC(CC(C)C)(C(=O)O)C3C(=O)N(Cc4ccccc4)C(=O)C23)c1O (stereo unspecified)
- IC50: > 100 µM (inactive)
- IC50 [2]: > 100 µM

Compound: CC(=O)NC(CCS(C)(=O)=O)C(=O)Nc1ccccc1Cl (stereo unspecified)
- IC50: > 100 µM (inactive)
- IC50 [2]: > 100 µM

Compound: NC(=O)Cn1c(=O)n(Cc2ccco2)c(=O)c2c3c(sc21)CCCCC3
- IC50: > 100 µM (inactive)
- IC50 [2]: > 100 µM

Compound: Cc1nnc2sc(-c3ccncc3)nn12
- IC50: > 100 µM (inactive)
- IC50 [2]: > 100 µM

Compound: C=CCN(C(=O)Cn1c(C(=O)OC)cc2oc(C)cc21)c1ccccc1
- IC50: > 100 µM (inactive)
- IC50 [2]: > 100 µM

Compound: CCOP(=O)(C#CC(C)(C)C)C1(O)CCCCC1 (stereo unspecified)
- IC50: > 100 µM (inactive)
- IC50 [2]: > 100 µM

Compound: Cc1cccc(Cn2cnc3c(nnn3Cc3ccc(Cl)cc3)c2=O)c1
- IC50: > 100 µM (inactive)
- IC50 [2]: > 100 µM

Compound: CCC(=O)N1CCc2cc(S(=O)(=O)NC(C(=O)NCc3ccccc3)C(C)C)ccc21 (stereo unspecified)
- IC50: > 100 µM (inactive)
- IC50 [2]: > 100 µM

Compound: Cc1nn(-c2ccccc2)c2c1C(c1c(C)[nH]c(C#N)c1C)C(C#N)=C(N)O2 (stereo unspecified)
- IC50: > 100 µM (inactive)
- IC50 [2]: > 100 µM

Compound: CCCn1c(SCC(=O)Nc2nc3c(s2)CCCC3)nc2c1c(=O)n(C)c(=O)n2C
- IC50: > 100 µM (inactive)
- IC50 [2]: > 100 µM

Compound: c1ccc(SCc2nc(-c3ccccn3)no2)cc1
- IC50: > 100 µM (inactive)
- IC50 [2]: > 100 µM

Compound: COc1ccc(OC)c2c(N3CCN(C)CC3)cc(C(F)(F)F)nc12
- IC50: > 100 µM (inactive)
- IC50 [2]: > 100 µM

Compound: CCOCCCNC(=O)C1CCN(c2cc(C)nc3c(-c4ccc(OC)c(OC)c4)c(C)nn23)CC1
- IC50: > 100 µM (inactive)
- IC50 [2]: > 100 µM

Compound: COc1ccc(N(C(=O)c2ccco2)S(=O)(=O)c2cccs2)cc1
- IC50: > 100 µM (inactive)
- IC50 [2]: > 100 µM

Compound: O=C(NCc1ccc(F)cc1)c1c(O)c2cccc3c2n(c1=O)CCC3
- IC50: > 100 µM (inactive)
- IC50 [2]: > 100 µM

Compound: O=c1c(-c2cc3ccccc3o2)[n+]([O-])c2ccccc2n1OCc1ccccn1
- IC50: > 100 µM (inactive)
- IC50 [2]: > 100 µM

Compound: CNC(=O)CCn1nc(-c2ccccc2)c2ccccc2c1=O
- IC50: > 100 µM (inactive)
- IC50 [2]: > 100 µM

Compound: CCCCCn1c(NC(=O)c2ccco2)c(S(=O)(=O)c2ccc(C)cc2)c2nc3ccccc3nc21
- IC50: > 100 µM (inactive)
- IC50 [2]: > 100 µM

Compound: CN(C)C(=O)Oc1ccc(OC(=O)c2ccccc2)cc1
- IC50 [2]: > 100 µM

Compound: Cn1c(/C(C#N)=C(\O)CN2CCN(Cc3ccccc3)CC2)nc2ccccc21
- IC50: > 100 µM (inactive)
- IC50 [2]: > 100 µM

Compound: Cc1ccc(C)c(N2CCN(S(=O)(=O)c3ccc4[nH]c(=O)c(=O)[nH]c4c3)CC2)c1
- IC50: > 100 µM (inactive)
- IC50 [2]: > 100 µM

Compound: Cc1ccc(C(=O)Nc2ncc(C)s2)o1
- IC50: inactive
- IC50 [1]: 17.6 µM
- IC50 [2]: > 100 µM

Compound: c1ccc(CCc2nc(-c3ccncc3)no2)cc1
- IC50: > 100 µM (inactive)
- IC50 [2]: > 100 µM

Compound: CCOC(=O)CC(=O)CSc1nc(C)cc(-c2cccnc2)c1C#N
- IC50: > 100 µM (inactive)
- IC50 [2]: > 100 µM

Compound: CCCCNS(=O)(=O)c1cccc(S(=O)(=O)N2CCCC2)c1
- IC50: > 100 µM (inactive)
- IC50 [2]: > 100 µM

Compound: CCCCN(Cc1ccccc1)S(=O)(=O)c1ccc2[nH]c(=O)oc2c1
- IC50: > 100 µM (inactive)
- IC50 [2]: > 100 µM

Compound: Cc1ccc(S(=O)(=O)n2nc(OC(=O)c3ccco3)cc2N)cc1
- IC50: > 100 µM (inactive)
- IC50 [2]: > 100 µM

Compound: CC(N=c1ccccn1C(=O)Nc1cccc(C(F)(F)F)c1)c1ccco1 (stereo unspecified)
- IC50: > 100 µM (inactive)
- IC50 [2]: > 100 µM

Compound: COc1ccc(C2=CC(c3sccc3C)n3nnnc3N2)cc1 (stereo unspecified)
- IC50: > 100 µM (inactive)
- IC50 [2]: > 100 µM

Compound: Cc1cc2c(cc1C)CSC(c1ccc(O)cc1)SC2
- IC50: > 100 µM (inactive)
- IC50 [2]: > 100 µM

Compound: COc1cc(S(=O)(=O)N(Cc2cccnc2)Cc2ccco2)ccc1-n1cnnn1
- IC50: > 100 µM (inactive)
- IC50 [1]: > 100 µM
- IC50 [2]: > 100 µM

Compound: CN1CCc2nc(SCCOc3ccccc3)c(C#N)cc2C1
- IC50: > 100 µM (inactive)
- IC50 [2]: > 100 µM

Compound: COC(=O)Cc1c(C)c2cc(Cl)c(OC(=O)c3ccco3)cc2oc1=O
- IC50: > 100 µM (inactive)
- IC50 [2]: > 100 µM

Compound: CN1C(=O)CC2(CC(=O)N(Cc3ccccc3)C2)C1=O (stereo unspecified)
- IC50: > 100 µM (inactive)
- IC50 [2]: > 100 µM

Compound: COc1ccc(NC(=O)CSc2ncnc3c2cnn3Cc2ccccc2)cc1OC
- IC50: > 100 µM (inactive)
- IC50 [2]: > 100 µM

Compound: O=C1c2ccncc2C(=O)N1C1CCCCC1
- IC50: > 100 µM (inactive)
- IC50 [2]: > 100 µM

Compound: Fc1ccc2nc(Nc3nc4c(s3)CCCC4)sc2c1
- IC50: > 100 µM (inactive)
- IC50 [2]: > 100 µM

Compound: CCC(=O)NCCSc1c[nH]c2ccccc12
- IC50: > 100 µM (inactive)
- IC50 [2]: > 100 µM

Compound: CCC(C(=O)NC1CCCC1)N(C(=O)c1snc(C(N)=O)c1N)c1ccc2c(c1)OCCO2 (stereo unspecified)
- IC50: > 100 µM (inactive)
- IC50 [2]: > 100 µM

Compound: CCOC(=O)Cn1c(=O)c2c(nc3n2CCN3Cc2ccccc2)n(C)c1=O
- IC50: > 100 µM (inactive)
- IC50 [2]: > 100 µM

Compound: CCCCC(=O)Nc1ccc(N2CCN(S(C)(=O)=O)CC2)cc1
- IC50: > 100 µM (inactive)
- IC50 [2]: > 100 µM

Compound: CN1C(=O)N(C)C2(c3ccccc3)NC(=O)NC12c1ccccc1 (stereo unspecified)
- IC50: > 100 µM (inactive)
- IC50 [2]: > 100 µM

Compound: Nc1nnnn1/N=C/c1ccc(O)cc1
- IC50: inactive
- IC50 [1]: 2.78 µM
- IC50 [2]: > 100 µM

Compound: COCCN1CN(S(=O)(=O)c2ccc(Cl)cc2)c2nc3ccccc3nc21
- IC50: > 100 µM (inactive)
- IC50 [2]: > 100 µM

Compound: COc1ccccc1-n1nc(C(=O)Nc2ccc3c(c2)OCO3)c2ccccc2c1=O
- IC50: > 100 µM (inactive)
- IC50 [2]: > 100 µM

Compound: COc1cccc(NC(=O)CN(c2ccc(C)cc2)S(=O)(=O)c2c(C)nn(C)c2C)c1
- IC50: > 100 µM (inactive)
- IC50 [2]: > 100 µM

Compound: CCOC(=O)c1[nH]c2ccc(OC)cc2c1NC(=O)C(C)N1CCSCC1 (stereo unspecified)
- IC50: > 100 µM (inactive)
- IC50 [2]: > 100 µM

Compound: C=CCOC(=O)C1=C(C)Nc2nc3ccccc3n2C1c1ccncc1 (stereo unspecified)
- IC50: > 100 µM (inactive)
- IC50 [2]: > 100 µM

Compound: COc1ccc(OC)c(N/C(C)=C/C(=O)c2ccc(C)o2)c1
- IC50: > 100 µM (inactive)
- IC50 [1]: > 100 µM
- IC50 [2]: > 100 µM

Compound: c1ccc2c(c1)ncn2-c1ncnc2sc3c(c12)CCCC3
- IC50: > 100 µM (inactive)
- IC50 [2]: > 100 µM
